Test results reported in patent US20240317721A1, “PYRAZOLYL DERIVATIVES AS INHIBITORS OF THE KRAS MUTANT PROTEIN” (NOVARTIS AG, priority 2021, published 2024).

Target: KRasG12C (M1-K169, biotinylated on the N-terminus) (Homo sapiens (Human), UniProt P01116, G12C)
Assay: Covalent competition assay: scintillation proximity assay (SPA) quantifying covalent modification of KRASG12C
Format: binding
Conditions: competition with radiolabeled covalent probe (Compound B/Compound A), 2 hours incubation, 10 nM KRasG12C
Method in brief: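 Scintillation proximity readout after streptavidin bead capture (30 min) of biotinylated KRasG12C(M1-K169):GDP, 10 nM final, which was covalently labelled over 2 h by 25 nM radio-probe plus 475 nM cold probe unless blocked by compound.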

| IC50 | Compound |
| --- | --- |
| > 5000 nM | C=CC(=O)N1CC2(CC(n3nc(N4CC=C(CN5CCOCC5)CC4(C)C)c(-c4c(Cl)c(Cl)cc5[nH]ncc45)c3C)C2)C1 (single isomer, unassigned) [Example 220a, 1-(6-(4-(5,6-dichloro-1H-indazol-4-yl)-3-(2,2-dimethyl-4-(morpholinomethyl)-3,6-dihydropyridin-1(2H)-yl)-5-methyl-1H-pyrazol-1-yl)-2-azaspiro[3.3]heptan-2-yl)prop-2-en-1-one] |
| 2100 nM | C=CC(=O)N1CC2(CC(n3nc(N4[C@H](C)CN(C(C)=O)C[C@@H]4C)c(-c4c(Cl)c(C)cc5[nH]ncc45)c3C)C2)C1 (single isomer, unassigned) [Example 13b] |
| > 5000 nM | C=CC(=O)N1CC2(CC(n3nc(N4CC(=O)N(C)CC45CCC5)c(-c4c(Cl)c(C)cc5[nH]ncc45)c3C)C2)C1 (single isomer, unassigned) [Example 65a, 5-(1-(2-acryloyl-2-azaspiro[3.3]heptan-6-yl)-4-(5-chloro-6-methyl-1H-indazol-4-yl)-5-methyl-1H-pyrazol-3-yl)-8-methyl-5,8-diazaspiro[3.5]nonan-7-one] |
| 32 nM | C=CC(=O)N1CC2(CC(n3nc(N4CCC(O)CC4(C)C)c(-c4c(Cl)c(C)cc5[nH]ncc45)c3C)C2)C1 (single isomer, unassigned) [Example 29b, 1-(6-(4-(5-chloro-6-methyl-1H-indazol-4-yl)-3-(4-hydroxy-2,2-dimethylpiperidin-1-yl)-5-methyl-1H-pyrazol-1-yl)-2-azaspiro[3.3]heptan-2-yl)prop-2-en-1-one] |
| 939 nM | CC[C@@]1(C)CN(C[C@@H]2COCCO2)CCN1c1nn(C2CC3(C2)CN(C(=O)/C=C/Cl)C3)c(C)c1-c1c(Cl)c(C)cc2[nH]ncc12 (single isomer, unassigned) [Example 175a] |
| 19 nM | C=CC(=O)N1CC2(CC(n3nc(N4CCN(C[C@@H]5COCCO5)C[C@@]4(C)C(F)F)c(-c4c(Cl)c(Cl)cc5[nH]ncc45)c3C)C2)C1 (single isomer, unassigned) [Example 105b] |
| 14 nM | C=CC(=O)N1CC2(CC(n3nc(N4CCN(C5CC6(COC6)C5)CC45CCC5)c(-c4c(Cl)c(C)cc5[nH]ncc45)c3C)C2)C1 (single isomer, unassigned) [Example 135b, 1-(6-(3-(8-(2-oxaspiro[3.3]heptan-6-yl)-5,8-diazaspiro[3.5]nonan-5-yl)-4-(5-chloro-6-methyl-1H-indazol-4-yl)-5-methyl-1H-pyrazol-1-yl)-2-azaspiro[3.3]heptan-2-yl)prop-2-en-1-one] |
| 923 nM | C=CC(=O)N1CC2(CC(n3nc(N4CCN(C5COC5)C[C@]4(C)COC)c(-c4c(Cl)c(C)cc5[nH]ncc45)c3C)C2)C1 (single isomer, unassigned) [Example 147b] |
| 4600 nM | C=CC(=O)N1CC2(CC(n3nc(N4CCC(n5ccnc5)CC4(C)C)c(-c4c(Cl)c(C)cc5[nH]ncc45)c3C)C2)C1 (single isomer, unassigned) [Example 44a, 1-(6-(3-(4-(1H-imidazol-1-yl)-2,2-dimethylpiperidin-1-yl)-4-(5-chloro-6-methyl-1H-indazol-4-yl)-5-methyl-1H-pyrazol-1-yl)-2-azaspiro[3.3]heptan-2-yl)prop-2-en-1-one] |
| 8 nM | C=CC(=O)N1CC2(CC(n3nc(N4CCN(C5COC5)C[C@]4(C)COC)c(-c4c(Cl)c(C)cc5[nH]ncc45)c3C)C2)C1 (single isomer, unassigned) [Example 147a] |
| 167 nM | C=CC(=O)N1CC2(CC(n3nc(N4CCN(C(C)=O)CC4(C)C)c(-c4c(Cl)c(C)cc5[nH]ncc45)c3C3CC3)C2)C1 (single isomer, unassigned) [Example 24b, 1-(6-(3-(4-acetyl-2,2-dimethylpiperazin-1-yl)-4-(5-chloro-6-methyl-1H-indazol-4-yl)-5-cyclopropyl-1H-pyrazol-1-yl)-2-azaspiro[3.3]heptan-2-yl)prop-2-en-1-one] |
| > 5000 nM | C=CC(=O)N1CC2(CC(n3nc(N4CCN(C5CCOCC5)C[C@@]4(CC)C(F)F)c(-c4c(Cl)c(C)cc5[nH]ncc45)c3C)C2)C1 (single isomer, unassigned) [Example 156a] |
